{
  "source": "PubChem BioAssay AID1053161",
  "about": "(Broad Institute, 2014)",
  "system": "HepG2 LDLR mRNA, qPCR, 6 h",
  "experiment": "LDLR mRNA induction with sterol depletion, late-stage follow-up, mechanism study for Trib1 inducer project, cell-based, HepG2, RT-PCR, cherry-picked dose (AID 1053161)",
  "settings": "stronger effect = higher value",
  "data": [
    {"compound": "CN1C(=O)c2cc(NC(=O)c3ccc(C(F)(F)F)cc3)ccc2OC[C@@H]2O[C@H](CC(=O)NC3Cc4ccccc4C3)CC[C@@H]21", "values": [
      {"measurement": "fold induction", "result": 2.5}
    ]}
  ]
}
